ChEMBL document CHEMBL5046253, “Synthesis and bioevaluation of diaryl urea derivatives as potential antitumor agents for the treatment of human colorectal cancer” (Eur J Med Chem, 2022)
The source made the active and inactive calls. The calls are words filed in the database; no cut-off is given here.

Tests used:
[1] = system: MCF7; assay: Antiproliferative activity against human MCF7 cells assessed as reduction in cell viability incubated for 48 hrs by MTT assay; type: functional, cell-based; details: MCF7, 48 h
[2] = system: A-431; assay: Antiproliferative activity against human A431 cells harboring wild type EGFR mutant assessed as reduction in cell viability incubated for 72 hrs by celltiter-glo assay; type: functional, cell-based; details: A-431, 72 h
[3] = system: NCI-H1975; assay: Antiproliferative activity against human NCI-H1975 cells harboring EGFR L858R/T790M double mutant assessed as reduction in cell viability incubated for 72 hrs by celltiter-glo assay; type: functional, cell-based; details: NCI-H1975, 72 h
[4] = system: MDA-MB-231; assay: Antiproliferative activity against human MDA-MB-231 cells assessed as reduction in cell viability incubated for 48 hrs by MTT assay; type: functional, cell-based; details: MDA-MB-231, 48 h
[5] = molecular target: Serine/threonine-protein kinase mTOR (Homo sapiens, UniProt P42345); assay: Inhibition of mTOR (unknown origin) using U-Light-4E-BP1 peptide as a substrate in presence of ATP incubated for 45 mins by Lance ultra assay
[6] = system: CNE-2; assay: Antiproliferative activity against human CNE-2 cells assessed as reduction in cell viability incubated for 48 hrs by MTT assay; type: functional, cell-based; details: CNE-2, 48 h
[7] = system: HepG2; assay: Antiproliferative activity against human HepG2 cells assessed as reduction in cell viability incubated for 48 hrs by MTT assay; type: functional, cell-based; details: HepG2, 48 h
[8] = molecular target: Phosphatidylinositol 4,5-bisphosphate 3-kinase catalytic subunit alpha isoform (Homo sapiens, UniProt P42336); assay: Inhibition of PI3Kalpha (unknown origin) using PIP2 as substrate in presence of ATP incubated for 60 mins by ADP-glo based luminescence assay
Phosphatidylinositol 4,5-bisphosphate 3-kinase catalytic subunit alpha isoform, sequence (P42336 whole entry, canonical isoform): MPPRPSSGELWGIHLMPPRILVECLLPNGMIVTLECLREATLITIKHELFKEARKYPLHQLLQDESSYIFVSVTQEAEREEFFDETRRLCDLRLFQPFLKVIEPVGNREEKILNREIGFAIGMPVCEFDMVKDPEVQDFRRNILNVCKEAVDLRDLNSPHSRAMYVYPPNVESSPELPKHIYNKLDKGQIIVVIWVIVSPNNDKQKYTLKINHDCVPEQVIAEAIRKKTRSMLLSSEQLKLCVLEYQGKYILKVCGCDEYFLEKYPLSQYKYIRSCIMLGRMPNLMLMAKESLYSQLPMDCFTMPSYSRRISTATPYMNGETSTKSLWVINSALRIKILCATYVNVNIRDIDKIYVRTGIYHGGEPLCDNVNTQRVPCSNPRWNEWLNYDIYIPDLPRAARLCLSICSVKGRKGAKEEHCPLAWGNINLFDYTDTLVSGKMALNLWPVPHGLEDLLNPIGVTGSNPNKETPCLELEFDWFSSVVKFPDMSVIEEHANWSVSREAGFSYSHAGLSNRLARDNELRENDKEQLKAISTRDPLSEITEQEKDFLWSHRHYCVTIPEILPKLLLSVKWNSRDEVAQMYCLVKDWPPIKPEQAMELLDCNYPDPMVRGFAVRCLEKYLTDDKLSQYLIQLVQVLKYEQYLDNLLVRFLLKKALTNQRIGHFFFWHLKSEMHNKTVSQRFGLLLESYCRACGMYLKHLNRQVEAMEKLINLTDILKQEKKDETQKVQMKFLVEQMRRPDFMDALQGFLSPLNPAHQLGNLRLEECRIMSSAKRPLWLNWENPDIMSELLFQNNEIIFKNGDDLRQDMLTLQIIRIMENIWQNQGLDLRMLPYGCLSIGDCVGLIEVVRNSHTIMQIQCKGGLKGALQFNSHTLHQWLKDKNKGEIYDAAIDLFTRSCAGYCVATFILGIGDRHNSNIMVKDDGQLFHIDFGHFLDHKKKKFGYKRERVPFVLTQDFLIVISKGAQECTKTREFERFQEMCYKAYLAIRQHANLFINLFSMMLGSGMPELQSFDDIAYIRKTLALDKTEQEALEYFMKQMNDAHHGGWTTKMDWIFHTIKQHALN

[9] = system: HCT-116; assay: Antiproliferative activity against human HCT-116 cells assessed as reduction in cell viability incubated for 48 hrs by MTT assay; type: functional, cell-based; details: HCT-116, 48 h
[10] = system: HeLa; assay: Antiproliferative activity against human HeLa cells assessed as reduction in cell viability incubated for 48 hrs by MTT assay; type: functional, cell-based
[11] = system: BaF3; assay: Antiproliferative activity against mouse BaF3 cells harboring EGFR L858R/T790M/C797S mutant assessed as reduction in cell viability incubated for 72 hrs by celltiter-glo assay; type: toxicity, cell-based; details: BaF3, 72 h
[12] = molecular target: Phosphatidylinositol 4,5-bisphosphate 3-kinase catalytic subunit beta isoform (Homo sapiens, UniProt P42338); assay: Inhibition of PI3Kbeta (unknown origin) using PIP2 as substrate in presence of ATP incubated for 60 mins by ADP-glo based luminescence assay
Phosphatidylinositol 4,5-bisphosphate 3-kinase catalytic subunit beta isoform, sequence (P42338 whole entry, canonical isoform): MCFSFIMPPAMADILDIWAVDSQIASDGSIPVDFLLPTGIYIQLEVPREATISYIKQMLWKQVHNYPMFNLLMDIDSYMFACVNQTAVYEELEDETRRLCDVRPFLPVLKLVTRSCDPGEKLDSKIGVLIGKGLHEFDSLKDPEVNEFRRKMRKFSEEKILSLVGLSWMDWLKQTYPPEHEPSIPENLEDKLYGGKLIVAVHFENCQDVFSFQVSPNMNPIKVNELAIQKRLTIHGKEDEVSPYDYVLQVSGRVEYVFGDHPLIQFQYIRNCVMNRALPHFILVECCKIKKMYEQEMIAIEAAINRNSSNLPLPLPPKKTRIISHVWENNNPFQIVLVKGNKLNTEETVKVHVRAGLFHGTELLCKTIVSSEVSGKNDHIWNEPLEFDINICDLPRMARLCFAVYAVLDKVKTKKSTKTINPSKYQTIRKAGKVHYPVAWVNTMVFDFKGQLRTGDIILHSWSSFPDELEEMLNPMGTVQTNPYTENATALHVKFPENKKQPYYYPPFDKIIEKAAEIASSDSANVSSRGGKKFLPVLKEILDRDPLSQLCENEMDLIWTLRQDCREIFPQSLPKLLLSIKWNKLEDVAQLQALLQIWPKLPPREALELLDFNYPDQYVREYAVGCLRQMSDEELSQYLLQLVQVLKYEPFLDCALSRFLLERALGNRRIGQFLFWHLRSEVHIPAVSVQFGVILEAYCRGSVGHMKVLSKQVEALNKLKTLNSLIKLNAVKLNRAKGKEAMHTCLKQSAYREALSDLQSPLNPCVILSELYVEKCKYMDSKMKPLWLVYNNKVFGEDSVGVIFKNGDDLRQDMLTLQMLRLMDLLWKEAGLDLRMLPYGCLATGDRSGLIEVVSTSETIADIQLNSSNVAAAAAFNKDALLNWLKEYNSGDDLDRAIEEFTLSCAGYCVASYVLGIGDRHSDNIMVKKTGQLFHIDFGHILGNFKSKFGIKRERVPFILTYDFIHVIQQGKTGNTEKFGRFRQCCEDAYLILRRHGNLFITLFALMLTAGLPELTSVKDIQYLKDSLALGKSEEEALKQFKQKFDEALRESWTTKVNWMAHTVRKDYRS

[13] = molecular target: Phosphatidylinositol 4,5-bisphosphate 3-kinase catalytic subunit gamma isoform (Homo sapiens, UniProt P48736); assay: Inhibition of PI3Kgamma (unknown origin) using PIP2 as substrate in presence of ATP incubated for 60 mins by ADP-glo based luminescence assay
Phosphatidylinositol 4,5-bisphosphate 3-kinase catalytic subunit gamma isoform, sequence (P48736 whole entry, canonical isoform): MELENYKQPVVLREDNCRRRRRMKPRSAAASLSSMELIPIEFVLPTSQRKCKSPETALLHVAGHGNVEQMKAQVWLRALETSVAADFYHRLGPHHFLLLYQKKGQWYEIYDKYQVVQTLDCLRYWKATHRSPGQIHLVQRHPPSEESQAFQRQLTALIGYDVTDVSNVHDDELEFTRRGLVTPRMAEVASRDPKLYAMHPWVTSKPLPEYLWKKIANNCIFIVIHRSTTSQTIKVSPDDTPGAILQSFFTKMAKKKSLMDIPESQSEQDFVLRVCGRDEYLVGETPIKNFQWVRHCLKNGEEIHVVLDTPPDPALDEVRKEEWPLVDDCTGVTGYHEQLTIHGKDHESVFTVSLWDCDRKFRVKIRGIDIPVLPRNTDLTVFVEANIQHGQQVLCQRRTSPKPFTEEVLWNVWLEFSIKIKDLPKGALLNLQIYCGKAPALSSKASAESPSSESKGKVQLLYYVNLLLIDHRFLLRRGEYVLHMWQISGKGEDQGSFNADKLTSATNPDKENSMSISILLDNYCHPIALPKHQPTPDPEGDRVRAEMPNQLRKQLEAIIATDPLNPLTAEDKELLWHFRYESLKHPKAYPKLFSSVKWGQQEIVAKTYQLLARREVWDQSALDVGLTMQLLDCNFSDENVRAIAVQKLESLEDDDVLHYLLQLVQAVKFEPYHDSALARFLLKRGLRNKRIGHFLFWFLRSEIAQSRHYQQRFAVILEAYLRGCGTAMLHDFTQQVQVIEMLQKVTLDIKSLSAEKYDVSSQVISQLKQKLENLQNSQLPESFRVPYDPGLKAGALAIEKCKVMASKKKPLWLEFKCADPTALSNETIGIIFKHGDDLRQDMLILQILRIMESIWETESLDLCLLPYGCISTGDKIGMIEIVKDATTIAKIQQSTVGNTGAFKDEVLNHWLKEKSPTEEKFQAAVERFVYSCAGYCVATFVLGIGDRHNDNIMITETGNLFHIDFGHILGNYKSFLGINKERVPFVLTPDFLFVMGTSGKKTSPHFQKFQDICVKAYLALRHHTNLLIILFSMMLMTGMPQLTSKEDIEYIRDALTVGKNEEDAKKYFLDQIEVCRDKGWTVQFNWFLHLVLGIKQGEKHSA

[14] = molecular target: T1, Phosphatidylinositol 4,5-bisphosphate 3-kinase catalytic subunit delta isoform (Homo sapiens, UniProt O00329); assay: Inhibition of PI3Kdelta (unknown origin) using PIP2 as substrate in presence of ATP incubated for 60 mins by ADP-glo based luminescence assay
T1 sequence (O00329 whole entry): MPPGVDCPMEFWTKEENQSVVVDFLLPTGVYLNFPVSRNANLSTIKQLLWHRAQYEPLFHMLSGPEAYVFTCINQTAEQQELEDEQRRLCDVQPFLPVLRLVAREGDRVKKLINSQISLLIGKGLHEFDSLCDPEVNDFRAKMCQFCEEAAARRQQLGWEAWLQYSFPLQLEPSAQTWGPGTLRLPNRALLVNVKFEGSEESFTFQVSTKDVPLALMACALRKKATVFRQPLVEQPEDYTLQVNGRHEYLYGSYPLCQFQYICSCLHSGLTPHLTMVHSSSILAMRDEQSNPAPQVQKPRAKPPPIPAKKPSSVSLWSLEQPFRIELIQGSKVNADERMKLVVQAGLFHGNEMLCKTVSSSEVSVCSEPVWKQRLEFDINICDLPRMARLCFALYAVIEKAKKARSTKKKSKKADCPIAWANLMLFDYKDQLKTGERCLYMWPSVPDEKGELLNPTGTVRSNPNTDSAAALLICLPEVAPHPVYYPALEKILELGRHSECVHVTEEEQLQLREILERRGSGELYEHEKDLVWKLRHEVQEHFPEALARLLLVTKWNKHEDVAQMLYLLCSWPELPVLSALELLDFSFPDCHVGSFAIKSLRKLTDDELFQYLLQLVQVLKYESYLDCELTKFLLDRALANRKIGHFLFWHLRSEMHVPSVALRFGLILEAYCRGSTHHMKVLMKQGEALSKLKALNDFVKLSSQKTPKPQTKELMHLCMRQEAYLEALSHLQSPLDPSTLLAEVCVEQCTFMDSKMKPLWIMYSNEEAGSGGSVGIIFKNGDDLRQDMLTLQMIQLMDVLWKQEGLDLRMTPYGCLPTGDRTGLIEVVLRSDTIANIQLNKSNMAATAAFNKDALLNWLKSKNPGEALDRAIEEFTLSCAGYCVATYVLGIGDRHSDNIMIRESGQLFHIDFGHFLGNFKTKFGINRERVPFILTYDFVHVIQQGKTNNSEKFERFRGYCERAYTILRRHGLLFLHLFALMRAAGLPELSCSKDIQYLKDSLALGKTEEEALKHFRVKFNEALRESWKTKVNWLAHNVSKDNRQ

[15] = system: HCT-116; assay: Antitumor activity against human HCT-116 cells xenografted in BALB/c nude mouse assessed as tumor size at 20 mg/kg, iv administered for 19 days (reference value: 1264.1+/-95.7 mm3); type: functional; details: time 19 day
[16] = system: Kidney; assay: Toxicity in BALB/c mouse assessed as effect on kidney by H and E staining based histological analysis; type: tissue-based; details: in vivo
[17] = system: Spleen; assay: Toxicity in BALB/c mouse assessed as effect on spleen by H and E staining based histological analysis; type: tissue-based; details: in vivo
[18] = system: Mus musculus; assay: Hyperglycemic activity in ICR mouse model assessed as effect on blood glucose level at 20 mg/kg, iv by glucometer; type: toxicity, organism-based; details: in vivo
[19] = system: Liver; assay: Toxicity in BALB/c mouse assessed as effect on liver by H and E staining based histological analysis; type: tissue-based; details: in vivo
[20] = Metabolic stability in Sprague-Dawley rat liver microsome; type: ADME; details: microsomes
[21] = MRT in Sprague-Dawley rat at 20 mg/kg, iv by LC-MS/MS analysis; type: ADME, organism-based; details: in vivo
[22] = Volume of distribution at steady state in Sprague-Dawley rat at 20 mg/kg, iv by LC-MS/MS analysis; type: ADME, organism-based; details: in vivo
[23] = AUC (0 to 72 hrs) in Sprague-Dawley rat at 20 mg/kg, iv by LC-MS/MS analysis; type: ADME, organism-based; set-up: time < 72 hr, route intravenous, dose 20 mg/kg; details: in vivo
[24] = system: Lung; assay: Toxicity in BALB/c mouse assessed as effect on lungs by H and E staining based histological analysis; type: tissue-based; details: in vivo
[25] = AUC (0 to infinity) in Sprague-Dawley rat at 20 mg/kg, iv by LC-MS/MS analysis; type: ADME, organism-based; set-up: route intravenous, time infinity, dose 20 mg/kg; details: in vivo
[26] = molecular target: Cytochrome P450 1A2 (Homo sapiens, UniProt P05177); assay: Inhibition of CYP1A2 (unknown origin); type: ADME
Cytochrome P450 1A2, sequence (P05177 whole entry): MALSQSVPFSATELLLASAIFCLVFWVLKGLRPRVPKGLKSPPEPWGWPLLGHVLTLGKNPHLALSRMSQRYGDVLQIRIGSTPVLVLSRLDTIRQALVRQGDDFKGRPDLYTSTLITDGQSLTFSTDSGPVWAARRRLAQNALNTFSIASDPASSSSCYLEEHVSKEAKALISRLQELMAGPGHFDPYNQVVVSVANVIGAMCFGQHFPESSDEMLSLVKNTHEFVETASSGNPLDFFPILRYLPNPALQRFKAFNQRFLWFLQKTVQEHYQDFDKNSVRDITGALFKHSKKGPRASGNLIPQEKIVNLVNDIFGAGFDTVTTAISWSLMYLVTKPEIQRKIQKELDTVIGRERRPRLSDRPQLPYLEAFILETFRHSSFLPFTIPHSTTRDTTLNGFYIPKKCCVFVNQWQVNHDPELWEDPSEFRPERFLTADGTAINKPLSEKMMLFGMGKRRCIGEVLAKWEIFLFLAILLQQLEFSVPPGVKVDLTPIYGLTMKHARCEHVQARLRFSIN

[27] = molecular target: Cytochrome P450 2D6 (Homo sapiens, UniProt P10635); assay: Inhibition of CYP2D6 (unknown origin); type: ADME
[28] = molecular target: Cytochrome P450 2C9 (Homo sapiens, UniProt P11712); assay: Inhibition of CYP2C9 (unknown origin); type: ADME
Cytochrome P450 2C9, sequence (P11712 whole entry): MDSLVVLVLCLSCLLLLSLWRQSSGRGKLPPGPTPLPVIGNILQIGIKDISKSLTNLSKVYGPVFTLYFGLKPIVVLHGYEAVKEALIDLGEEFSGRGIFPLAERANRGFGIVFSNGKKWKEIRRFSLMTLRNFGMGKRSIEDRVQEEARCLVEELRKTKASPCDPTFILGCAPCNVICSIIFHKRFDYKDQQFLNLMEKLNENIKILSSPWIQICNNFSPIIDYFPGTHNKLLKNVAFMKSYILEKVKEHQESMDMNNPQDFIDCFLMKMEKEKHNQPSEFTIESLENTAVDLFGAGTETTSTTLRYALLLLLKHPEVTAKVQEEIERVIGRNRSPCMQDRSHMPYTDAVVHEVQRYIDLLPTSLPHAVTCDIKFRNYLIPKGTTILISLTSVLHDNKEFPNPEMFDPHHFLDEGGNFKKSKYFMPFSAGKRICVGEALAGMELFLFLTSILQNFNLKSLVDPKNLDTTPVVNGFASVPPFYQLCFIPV

[29] = system: HCT-116; assay: Inhibition of AKT phosphorylation at S473 residue in human HCT-116 cells at 10 uM after 24 hrs by Western blot analysis; type: cell-based
[30] = system: Heart; assay: Toxicity in BALB/c mouse assessed as effect on heart by H and E staining based histological analysis; type: tissue-based; details: in vivo
[31] = molecular target: Cytochrome P450 2C19 (Homo sapiens, UniProt P33261); assay: Inhibition of CYP2C19 (unknown origin); type: ADME
Cytochrome P450 2C19, sequence (P33261 whole entry): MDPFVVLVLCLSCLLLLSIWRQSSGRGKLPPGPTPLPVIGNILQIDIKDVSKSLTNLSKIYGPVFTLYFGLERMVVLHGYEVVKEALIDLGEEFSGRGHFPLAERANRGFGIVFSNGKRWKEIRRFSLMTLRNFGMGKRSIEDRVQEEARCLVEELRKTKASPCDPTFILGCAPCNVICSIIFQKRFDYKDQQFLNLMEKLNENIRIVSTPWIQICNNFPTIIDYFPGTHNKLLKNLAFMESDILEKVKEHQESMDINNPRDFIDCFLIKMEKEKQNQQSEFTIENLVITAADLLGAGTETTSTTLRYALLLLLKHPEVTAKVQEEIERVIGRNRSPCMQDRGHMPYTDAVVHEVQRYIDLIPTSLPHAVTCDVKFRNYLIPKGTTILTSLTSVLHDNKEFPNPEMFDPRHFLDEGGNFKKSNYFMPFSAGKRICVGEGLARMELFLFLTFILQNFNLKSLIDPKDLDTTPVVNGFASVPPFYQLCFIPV

[32] = Half life in Sprague-Dawley rat at 20 mg/kg, iv by LC-MS/MS analysis; type: ADME, organism-based; details: in vivo
[33] = system: HCT-116; assay: Antitumor activity against human HCT-116 cells xenografted in BALB/c nude mouse assessed as tumor growth inhibition at 20 mg/kg, iv administered for 19 days; type: functional; details: HCT-116, iv, 456 h, time 19 day, read-out: TGI
[34] = Tmax in Sprague-Dawley rat at 20 mg/kg, iv by LC-MS/MS analysis; type: ADME, organism-based; details: in vivo

Row | IC50 [1] [nM] | IC50 [2] [nM] | IC50 [3] [nM] | IC50 [4] [nM] | IC50 [5] [nM] | IC50 [7] [nM] | IC50 [8] [nM] | IC50 [9] [nM] | IC50 [10] [nM] | IC50 [12] [nM] | IC50 [13] [nM] | IC50 [14] [nM] | Structure (SMILES) | IC50 [6] [nM] | IC50 [11] [nM] | other results
1 | 3810 | 585 | 2440 | 900 | 1.9 | 510 | 0.7 | 1510 | 1390 | – | – | – | NC(=O)C1CCN(C(=O)c2ccc(NC(=O)Nc3ccc(-c4nc(N5CCOCC5)nc(N5CCOCC5)n4)cc3)cc2)CC1 | 4170 | 292 | –
2 | – | – | – | – | 0.9 | – | 5 | – | – | 47.1 | 34 | 44.1 | C[C@H](NC(=O)c1ccc(NC(=O)Nc2ccc(-c3nc(N4CCOCC4)nc(N4CCOC[C@@H]4C)n3)cc2)cc1)C(N)=O | – | – | –
3 | – | – | – | – | – | – | – | – | – | – | – | – | CN(C)C1CCN(C(=O)c2ccc(NC(=O)Nc3ccc(-c4nc(N5CCOCC5)nc(N5CCOCC5)n4)cc3)cc2)CC1 [GEDATOLISIB] | – | – | Activity [15]: 800.3 mm3; Activity [16]: Non-Toxic; Activity [17]: Non-Toxic; Activity [18]: Toxic; Activity [19]: Non-Toxic; Stability [20]: Stable; MRT [21]: 9.1 h; Vdss [22]: 10.3 L/kg; AUC(0-t) at 72 h [23]: 41800 ng·h/mL; Activity [24]: Non-Toxic; AUC(0-inf) [25]: 42200 ng·h/mL; IC50 [26]: > 50000 nM; IC50 [27]: > 50000 nM; IC50 [28]: > 50000 nM; inhibition [29]: Active; Activity [30]: Non-Toxic; IC50 [31]: > 50000 nM; half-life [32]: 15 h; inhibition in vivo at 20 mg/kg [33]: 41.2%; Tmax [34]: 1.8 min
4 | – | 2500 | 2880 | 14600 | 2.2 | – | 7 | 2510 | 12000 | 14.9 | 19.4 | 29.1 | CN(C)[C@@H]1C[C@@H](C(N)=O)N(C(=O)c2ccc(NC(=O)Nc3ccc(-c4nc(N5CCOCC5)nc(N5CCOCC5)n4)cc3)cc2)C1 | 7890 | 3350 | –
5 | 700 | – | – | 430 | 3.3 | 8820 | 28.7 | 310 | 1430 | – | – | – | COC(=O)[C@@H]1C[C@@H](O)CN1C(=O)c1ccc(NC(=O)Nc2ccc(-c3nc(N4CCOCC4)nc(N4CCOCC4)n3)cc2)cc1 | 2680 | – | –
6 | 2290 | 242 | 601 | 250 | 2.1 | 130 | 1.6 | 740 | 9690 | – | – | – | NC(=O)C1CCCN(C(=O)c2ccc(NC(=O)Nc3ccc(-c4nc(N5CCOCC5)nc(N5CCOCC5)n4)cc3)cc2)C1 (configuration not stated) | 10200 | 294 | –
7 | 10400 | – | – | 7350 | 2.3 | – | 0.6 | 290 | 10400 | 3.2 | 7.4 | 13 | NC(=O)[C@H]1CCCN1C(=O)c1ccc(NC(=O)Nc2ccc(-c3nc(N4CCOCC4)nc(N4CCOCC4)n3)cc2)cc1 | 180 | – | –
8 | 3160 | – | – | 5210 | 7.6 | 17700 | 16.5 | 2570 | 1510 | – | – | – | NC(=O)C1CCCCN1C(=O)c1ccc(NC(=O)Nc2ccc(-c3cc(N4CCOCC4)nc(N4CCOCC4)n3)cc2)cc1 (configuration not stated) | 2000 | – | –
9 | 3500 | – | – | 1300 | 1 | 1030 | 1.8 | 2190 | 460 | – | – | – | C[C@@H]1COCCN1c1nc(-c2ccc(NC(=O)Nc3ccc(C(=O)N4CCC[C@H]4C(N)=O)cc3)cc2)nc(N2CCOCC2)n1 | 350 | – | –
10 | – | 1160 | 3360 | 940 | 2.1 | 460 | 0.9 | 3660 | 1900 | 5.1 | 28 | 25 | C[C@@H](NC(=O)c1ccc(NC(=O)Nc2ccc(-c3nc(N4CCOCC4)nc(N4CCOCC4)n3)cc2)cc1)C(N)=O | 12600 | 547 | –
11 | – | 6380 | 5450 | 39000 | 2.2 | 3190 | 5.5 | 4810 | 13500 | 11.9 | 98.8 | 16.1 | NC(=O)[C@@H]1CC(O)CN1C(=O)c1ccc(NC(=O)Nc2ccc(-c3nc(N4CCOCC4)nc(N4CCOCC4)n3)cc2)cc1 (some centres not stated) | 5420 | 2690 | –
12 | 7890 | – | – | 11300 | 7.4 | 24200 | 13.8 | 8040 | 13500 | – | – | – | NC(=O)[C@@H]1CCCN1C(=O)c1ccc(NC(=O)Nc2ccc(-c3cc(N4CCOCC4)nc(N4CCOCC4)n3)cc2)cc1 | 1950 | – | –
